One data set deals with LH (LbetaT2 cells). Description: LH secretion from LbetaT2 cells. Type of data set: cell-based, murine. The settings on record: for LH secretion versus WT GnRH: 10 nM R31C; for LH secretion over baseline: 10 nM, four experiments in duplicates, p<0.001 for WT, p = 0.042 for R31C. As for the experimental part: (§1) Figure 7 Effects of treatments on lhb transcription and LH secretion. (A) LbetaT2 cells were starved overnight in serum-free DMEM and treated either by 10 nM WT, R31C, 10 nM WT +10 nM R31C peptides or vehicle. After five hours treatment cells were lysed for RNA extraction (Trizol®). Mouse lhb levels were analyzed by quantitative real time RT-qPCR. Values are expressed as individual ratios on 18S and represented as fold induction on vehicle as means ± SEM, **p<0.01. This experience was conducted n = 7 times in duplicates. (B) LH concentrations from LbetaT2 cells culture media. Cells were starved overnight in serum-free DMEM and incubated with 10 nM WT, 10 nM R31C, 10 nM WT +10 nM R31C, or vehicle for 5 hours. LH levels were measured by a combined rat/mouse RIA. Values are expressed as individual values and as means ± SEM, *p<0.05, ***p<0.001. The experiment was conducted four times and each sample was assayed in duplicates.
LbetaT2 cells were starved overnight in serum-free DMEM. The test day cells were exposed to 10 nM WT, R31C, the combination of 10 nM of each peptide or vehicle during five hours. Cell culture supernatants were collected and rapidly stored at −80°C. In cell culture media, LH concentration was measured using a previously described […] method with reagents supplied by Dr. Parlow (National Hormone and Peptide Program, Harbor-UCLA Medical Center, Torrance, CA). The minimum detectable LH concentration was 0.2 ng/ml, and the interassay coefficient of variation was less than 10%.

Another data set has as its system lhb (LbetaT2 cells). The data set can be described thus: lhb transcription (RT-qPCR) in LbetaT2 cells. The settings on record: for lhb transcription versus WT GnRH: 10 nM R31C; for lhb transcript levels: 10 nM, n = 7 in duplicates, p<0.01 for WT, not significant for R31C. Type of data set: cell-based, mouse. As for the experimental part: as §1, with “(A) LbetaT2 cells were starved overnight in serum-free DMEM and treated either by 10 nM WT, R31C, 10 nM WT +10 nM R31C peptides or vehicle.” left out
LbetaT2 cells were grown at 10^6/well in 6-well plates and starved in serum-free DMEM 18 h before tests. […]
Lhb (murine LH beta subunit) transcript was quantified by real-time RT-PCR, using an ABI Step One Sequence Detector (Applied Biosystem, Foster City, CA) as previously described.
(In general: Quantitative PCR measures a nucleic acid by following its amplification.)

Another data set has as its system GnRH-R. Description: Binding after pre-incubation and washout (covalent binding test), transfected COS-7 cells. Set-up: species or system human. The settings on record: for covalent binding to receptor / subsequent binding of radiolabeled GnRH analog after pre-incubation and washing: WT GnRH 10^−8 M or R31C GnRH 10^−5 M, 2 h, 4°C, washed, 1 h, two experiments in triplicate. As for the experimental part: Figure 2 Binding of WT and R31C GnRH to the GnRH receptor (GnRH-R). […] Data are the means of two experiments performed in triplicate.
We hypothesized that the cysteine in position 8 of the R31C GnRH might form disulfide bridges with cysteine residues in the receptor that are not in disulfide bridges. There are three such cysteines: cysteine 218, cysteine 279 and cysteine 317. In order to examine this possibility the effects of R31C GnRH pre-incubation on subsequent binding of a radio-labelled GnRH analog was examined. […] After treatment, the cells were extensively washed to remove all non-covalently bound peptide.

A further data set has as its system LbetaT2 cells. Description: Intracellular calcium mobilization (Fura2) in LbetaT2 cells. Type of data set: cell-based, murine. The settings on record: for calcium mobilisation: 10 nM, LbetaT2 cells. How it is done:
Figure 5 Effect of treatments on intracellular calcium mobilization. Cells were loaded with Fura 2-AM. At the time of the experiment 100 µM EGTA was added 30 sec before addition of 300 µM of CaCl2 (Ca^2+) to the medium as indicated, and cells were then stimulated with 10 nM of wild type (WT), mutant (R31C) or equimolar combination (10 nM WT +10 nM R31C) or vehicle for 3 min. In the upper panel, representative curves of single cell recording. Each experiment mean was analysed using One-way ANOVA followed by Tukey's Multiple comparison test. In the lower panels, histograms show the means ± SEM (n = 4) of the response to ligands as calcium peak and as area under the curve (AUC). […] Representative of at least three independent experiments, *p<0.05.
LbetaT2 cells were kept in serum free medium overnight and then loaded with 2 µM Fura2-AM for 45 min at 37°C. The experiment was conducted in HEPES buffer (in mM; 116 NaCl, 5.6 KCl, 1.2 MgCl2, 5 NaHCO3, 1 NaH2PO4, 20 HEPES ph 7.4) in presence of extracellular Ca^2+ (EGTA 100 µM + CaCl2 300 µM). Single images of fluorescent emission at 510 nm under excitation at 340 and 380 nm were taken every 5 Sec. Changes in [Ca^2+]i in response to GnRHs were monitored using the Fura2 340/380 fluorescence ratio. Basal ratio was arbitrarily considered as 1. Ca^2+ responses over basal level were given either as maximal rise of [Ca^2+]i or as area under the curve (for 2 min after agonist addition).
(A change in cytosolic calcium serves as a functional read-out for many receptors and channels.)

The next data set relates to ERK1/2 (LbetaT2 cells). Description: ERK1/2 phosphorylation Western blot in LbetaT2 cells. Type of data set: cell-based, murine. How it is done: Figure 4 ERK1/2 phosphorylation by Western blot. (A) LbetaT2 cells were starved overnight in serum-free DMEM and then treated by 10 nM WT, 10 nM R31C, 10 nM WT +10 nM R31C peptides or vehicle for 0, 5, 10 and 30 minutes. Representative of four experiments. […] Lysates were analyzed by Western Blotting using phospho-ERK1/2 antibodies (Cell Signaling®, open arrow) and mouse monoclonal anti alpha-tubulin (Sigma Aldrich®, St. Louis, MO, close arrow). Similar results on ERK intensity and kinetics were obtained using transiently transfected HEK293T cells.
LbetaT2 cells were starved 18 h in serum-free DMEM before treatments, then exposed to 10 nM of WT, 10 nM of R31C, the combination of 10 nM of each peptide or vehicle. Cells were harvested at 0, 5, 10, 15 and 30 minutes after treatment. Western blotting analyses were performed as previously described.

Data set [1] is described as follows: Peptide stability in solution, LC-MS/MS.
Method: LC-MS/MS was performed with Quattro-LCZ triple quadrupole mass spectrometer equipped with the orthogonal electrospray source (Micromass, Manchester, UK) to analyze peptides stability in solution. Peptides solutions (water and cell culture medium) were incubated 24-h at room temperature for these stability studies.
Peptides were measured in aqueous solution at pH 7 and starved overnight at 37°C.
The mark [2] stands for this setting: 5 hours, listed as R31C peptide.
Setting [3] is: R31C 10^−10 M to 10^−6 M in combination with WT GnRH at 10^−9 M.
Where [4] appears, read: 10 nM R31C, 3 min, EGTA 100 µM + CaCl2 300 µM, n = 4, p<0.05.
The mark [5] stands for this setting: aqueous solution at pH 7, overnight at 37°C, mass spectrometry-coupled electrospray (Fig. S1).

Consider two compounds from paper PMC3723855, “R31C GNRH1 Mutation and Congenital Hypogonadotropic Hypogonadism” (PLoS ONE, 2013).

Entries after “also recorded” stand apart in the source; their conditions may differ.

In the case of `CC(C)C[C@H](NC(=O)CNC(=O)[C@H](Cc1ccc(O)cc1)NC(=O)[C@H](CO)NC(=O)[C@H](Cc1c[nH]c2ccccc12)NC(=O)[C@H](Cc1c[nH]cn1)NC(=O)[C@@H]1CCC(=O)N1)C(=O)N[C@@H](CS)C(=O)N1CCC[C@H]1C(=O)NCC(N)=O` [R31C GnRH], the entries for the “LH secretion versus WT GnRH” value in the data set on LH (LbetaT2 cells) (5 hours) and with LH (LbetaT2 cells) (setting [2]) were “very low activity” and “weaker responses”, respectively. For the same compound, the “influence of R31C GnRH on stimulation of LH secretion by WT GnRH” value in the data set on LH (LbetaT2 cells) (10 nM WT + 10 nM R31C, 5 hours) was “unable to influence”. In addition, the “LH secretion over baseline” value with LH (LbetaT2 cells) (5 hours) is on record as “significantly stimulated LH secretion”. Also, the “impact of added R31C GnRH on LH secretion with WT GnRH” value in the data set on LH (LbetaT2 cells) (setting [3]) is given as “failed to have any impact”. The “lhb transcription versus WT GnRH” value with lhb (LbetaT2 cells) (5 hours) is on record as “very low activity”; in the data set with lhb (LbetaT2 cells) (setting [2]), “weaker responses”. Moreover, the “influence of R31C GnRH on stimulation of lhb transcription by WT GnRH” value in the data set on lhb (LbetaT2 cells) (10 nM WT + 10 nM R31C, 5 hours) is listed as “unable to influence the stimulation of lhb transcription”. Further, the lhb transcript levels entry with lhb (LbetaT2 cells) (5 hours) was “did not significantly increase these levels over baseline”. The “impact of added R31C GnRH on lhb transcription with WT GnRH” value in the data set on lhb (LbetaT2 cells) (setting [3]) is “failed to have any impact”. The “receptors occupied in pre-incubation” value in the data set with GnRH-R (R31C GnRH (10^−5 M in method and Fig. 2B), determined from the competition binding study) worked out at 50%. Moreover, the “covalent binding to receptor / subsequent binding of radiolabeled GnRH analog after pre-incubation and washing” value in the data set on GnRH-R is “does not form covalent disulfide bonds with the receptor”. For the same compound, in the data set with LbetaT2 cells (setting [4]), the “calcium area under the curve (AUC) versus WT” value is “significantly reduced compared to WT; also recorded: significantly lower than WT”. Besides, the “calcium peak versus WT” value in the data set with LbetaT2 cells (setting [4]) is recorded as “significantly reduced compared to WT; also recorded: significantly lower than WT”. In addition, the “calcium mobilisation” value in the data set with LbetaT2 cells is recorded as “very low activity”; in the data set on LbetaT2 cells (listed as R31C peptide) it was “weaker responses”. For the same compound, the “impact of added R31C GnRH on Ca2+ signaling with WT GnRH” value in the data set on LbetaT2 cells (setting [3]) is on record as “failed to have any impact”. Moreover, the “ERK1/2 phosphorylation versus WT GnRH” value in the data set on ERK1/2 (LbetaT2 cells) (10 nM, LbetaT2 cells, four experiments) was “very low activity”; in the data set on ERK1/2 (LbetaT2 cells) (10 nM, LbetaT2 cells, four experiments, listed as R31C peptide), “weaker responses”. Besides, the “effect of increasing R31C dose on ERK1/2 phosphorylation by WT GnRH” value in the data set with ERK1/2 (LbetaT2 cells) (R31C from 10 nM to 300 nM with 10 nM WT GnRH, 5 minutes exposure) is on record as “did not reduce ERK1/2 phosphorylation”. In addition, the dimerization result in data set [1] (24 h, room temperature, water and culture medium, LC-MS/MS) is on record as “No dimerization”. The “formation of R31C dimers” value in data set [1] (setting [5]) is reported as “absent”. The “formation of smaller fragments” value in data set [1] (setting [5]) is reported as “negligible”. Also, the “stability over 24-hours” value in data set [1] (culture medium, room temperature, 24 h, LC-MS/MS) was “stable”; in data set [1] (water, room temperature, 24 h, LC-MS/MS), “stable”.

In the case of `CC(C)C[C@H](NC(=O)CNC(=O)[C@H](Cc1ccc(O)cc1)NC(=O)[C@H](CO)NC(=O)[C@H](Cc1c[nH]c2ccccc12)NC(=O)[C@H](Cc1c[nH]cn1)NC(=O)[C@@H]1CCC(=O)N1)C(=O)N[C@@H](CCCNC(=N)N)C(=O)N1CCC[C@H]1C(=O)NCC(N)=O` [WT GnRH, reference compound], the “LH secretion over baseline” value in the data set on LH (LbetaT2 cells) (5 hours) is given as “strongly stimulated LH secretion over baseline”. In the data set on lhb (LbetaT2 cells) (5 hours), the lhb transcript levels entry is recorded as “significantly increased lhb transcript levels”. For the same compound, in the data set on GnRH-R, the “covalent binding to receptor / subsequent binding of radiolabeled GnRH analog after pre-incubation and washing” value was “can be fully removed from the receptor”. Further, the “receptors occupied in pre-incubation” value with GnRH-R (WT GnRH at 10^−8 M) came to 50%. Also, the “calcium mobilisation” value in the data set on LbetaT2 cells was “rapid and transient calcium mobilisation”. In addition, the “time of maximal ERK1/2 phosphorylation” value with ERK1/2 (LbetaT2 cells) (10 nM, LbetaT2 cells, 0-30 minutes, four experiments) turned out to be 5 min. The “formation of smaller fragments” value in data set [1] (setting [5]) was “absent”.
